Test results reported in PubChem BioAssay AID588780 (Sanford-Burnham Center for Chemical Genomics, 2011).
The source made the active and inactive calls.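 How the source made its calls: active means compounds whose fitted half-maximal concentration in the cell-protection dose series is at or below a set limit; inactive means the rest.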

Each compound was assayed on H9c2 cardiomyocytes, 2-deoxyglucose stress, ATP luminescence, 2 h (assay: protection of cardiomyocytes from 2-deoxyglucose injury, dose response, cell-based, 2-deoxyglucose stress, uHTS hits (AID 588780)).
For `Cn1c2ccccc2c(=O)c2ccc(NCc3ccc4c(c3)OCO4)cc21`, the IC50 was 8.06 µM.
In the case of `Cc1cccc(NC(=O)c2nc[nH]c2C(=O)NCCCCNC(=O)c2[nH]cnc2C(=O)Nc2cccc(C)c2)c1`, the IC50 is reported as > 79 µM (inactive).
For `O=C1c2ccccc2C(=O)N1CCCCSc1nc2ccccc2c(=O)n1CCCN1CCOCC1`, the IC50 was 58.6 µM (inactive).
With `CCOc1ccccc1N1CC(O)=C(c2nc3ccccc3s2)C1=N` the IC50 was > 79 µM (inactive).
In the case of `Cc1sc2nc(CSCC(=O)N(CCC#N)c3ccccc3F)[nH]c(=O)c2c1C`, the IC50 is reported as 27.9 µM.
In the case of `COc1cc(NC(=O)c2ccco2)c(OC)cc1NC(=O)c1cc(OC)c(OC)c(OC)c1`, the IC50 is reported as > 79 µM (inactive).
`CC(C)(C)NC(=O)c1cccc(NC(=O)c2ccc(NC(=O)c3ccco3)cc2)c1` gave an IC50 of 15.4 µM.
Work on `Cc1cccc(-n2c(SCc3cc(=O)n4ccsc4n3)nc3ccccc3c2=O)c1` yielded an IC50 of 14 µM.
In the case of `Cc1ccc(S(=O)(=O)N2CCN(C(=O)CCc3nc4ccccc4c(=O)[nH]3)CC2)c(C)c1`, the IC50 is reported as > 79 µM (inactive).
With `Cc1nn2c(-c3cccc(NC(=O)c4ccco4)c3)nnc2c2ccccc12` the IC50 was > 79 µM (inactive).
In the case of `Nc1ccc2c(c1)[nH]c(=O)c1ccccc12`, the IC50 is reported as > 79 µM (inactive).
In the case of `COc1ccc2oc(C(=O)Nc3ccc(N4CCOCC4)cc3)c(C)c2c1`, the IC50 is reported as > 79 µM (inactive).
`CCC(=O)N1CCN(c2ccccc2NC(=O)c2ccc(-c3cccc([N+](=O)[O-])c3)o2)CC1` was tested, and the IC50 was > 79 µM (inactive).
With `O=C(Nc1cccc(-c2nc3cccnc3s2)c1)c1ccco1` the IC50 was > 79 µM (inactive).
For `COc1ccc(C(=O)COC(=O)c2ccc([N+](=O)[O-])s2)cc1OC`, the IC50 was > 79 µM (inactive).
`Cc1ccc2[nH]c(=O)c(CN(Cc3ccco3)S(=O)(=O)c3c(C)ccc4nsnc34)cc2c1` gave an IC50 of 29.7 µM.
Compound `O=C(NCCN1CCN(c2ccccc2F)CC1)c1cccn2c(=O)c3ccccc3nc12` has an IC50 of 11.2 µM.
Compound `CCOC(=O)C1CCN(c2cc3c(cc2NC(=O)c2ccccc2Cl)n(C)c(=O)n3C)CC1` has an IC50 of 11.7 µM.
In the case of `N#CCCn1c(SCC(=O)c2c[nH]c3ccccc23)nc2ccccc21`, the IC50 is reported as 49.4 µM (inactive).
With `CCC(CC)C(=O)Nc1cc(C)c2c(=O)oc3ccccc3c2n1` the IC50 was > 79 µM (inactive).
For `Cc1ccc(C)c(NC(=O)C(Sc2ncnc3ccccc23)c2ccccc2)c1` (stereo unspecified), the IC50 was > 79 µM (inactive).
For `O=C(COC(=O)Cc1n[nH]c(=O)c2ccccc12)Nc1ccc(Cl)cc1F`, the IC50 was > 79 µM (inactive).
With `Cc1nn(-c2ccccc2)c(N2CCCC2)c1/C=N/NC(=O)c1cc(-c2ccccn2)nc2ccccc12` the IC50 was > 79 µM (inactive).
`CCOC(=O)N1CCN(C(=O)CSc2nc3c(cnn3-c3ccc(C)cc3)c(=O)[nH]2)CC1` was tested, and the IC50 was > 79 µM (inactive).
`CC1Nc2ncnc(N3CCN(c4ccccc4)CC3)c2N(Cc2ccc(Cl)cc2)C1=O` (stereo unspecified) was tested, and the IC50 was 12.7 µM.
`O=C(Cn1[nH]c(=O)c2ccccc2c1=O)OCC(=O)N1CCCc2ccccc21` was tested, and the IC50 was 51.3 µM (inactive).
In the case of `COc1ccc(/C=N/NC(=O)c2cc(OC)c(OC)c(OC)c2)cc1CN1CCc2cc(OC)c(OC)cc2C1C` (stereo unspecified), the IC50 is reported as > 79 µM (inactive).
In the case of `O=c1[nH]nc(-c2ccc(NCCO)c([N+](=O)[O-])c2)c2ccccc12`, the IC50 is reported as > 79 µM (inactive).
`c1coc(-c2nnc3sc(-c4cccs4)nn23)c1` was tested, and the IC50 was > 79 µM (inactive).
`COc1cc(C(=O)N/N=C/c2ccc(OC(=O)c3cccc(C)c3)c(OC)c2)ccc1O` was tested, and the IC50 was > 79 µM (inactive).
For `COc1ccc(C=CC(=O)c2ccc3cc(OC)c(OC)cc3c2)cc1OC`, the IC50 was > 79 µM (inactive).
For `NC(=O)c1cccc(-c2coc3c(C(=O)NCCc4ccccc4)cccc23)c1`, the IC50 was > 79 µM (inactive).
For `Cc1ccc(-c2n[nH]c(=O)c3ccccc23)cc1S(N)(=O)=O`, the IC50 was > 79 µM (inactive).
`CCCNC(=O)c1ccc2c(=O)c(O)c(-c3ccc(C)cc3)[nH]c2c1` was tested, and the IC50 was > 79 µM (inactive).
Compound `Cc1cc(=O)oc2cc(OCC(=O)N3CCN(C(=O)C4COc5ccccc5O4)CC3)c(Cl)cc12` (stereo unspecified) has an IC50 of 12.7 µM.
`COc1ccc(C(C(=O)NC2CCCCC2)N(Cc2cccs2)C(=O)Cc2c[nH]c3ccccc23)cc1OC` (stereo unspecified) showed an IC50 of 12.5 µM.
For `CC(C)(C)c1ccc(OCCCC(=O)NNC(=O)c2ccccc2O)cc1`, the IC50 was > 79 µM (inactive).
In the case of `COc1ccc(C(C(=O)NC2CCCC2)N(C(=O)c2snc(C(N)=O)c2N)c2cccc(O)c2)cc1` (stereo unspecified), the IC50 is reported as > 79 µM (inactive).
In the case of `COc1ccc(OC)c(C(=O)COC(=O)c2ccc([N+](=O)[O-])o2)c1`, the IC50 is reported as > 79 µM (inactive).
In the case of `CCn1c(SCC(=O)N2CCN(c3ccccc3)CC2)nc2c(c1=O)SC(C)C2` (stereo unspecified), the IC50 is reported as > 79 µM (inactive).
With `COc1ccc(Cl)cc1NC(=O)CN(C)C(=O)Cc1n[nH]c(=O)c2ccccc12` the IC50 was > 79 µM (inactive).
For `O=C(NCCc1c[nH]c2ccccc12)C(=O)NCC(c1ccco1)N1CCN(c2ccccc2F)CC1` (stereo unspecified), the IC50 was > 79 µM (inactive).
In the case of `COc1ccc2[nH]c(=O)c(CN(Cc3cccnc3)S(=O)(=O)c3ccccc3F)cc2c1`, the IC50 is reported as > 79 µM (inactive).
With `COc1cc(C(=O)Nc2ccc(NC(=O)c3cccc(Cl)c3)nc2)cc(OC)c1OC` the IC50 was 13.8 µM.
With `COc1ccc(CCn2c(=N)c(C(=O)NCC3CCCO3)cc3c(=O)n4cccc(C)c4nc32)cc1OC` (stereo unspecified) the IC50 was 58 µM (inactive).
With `CCN(Cc1ccccc1)C(=O)c1cc2c(=O)oc3ccc(C)cc3c2s1` the IC50 was > 79 µM (inactive).
For `O=c1oc2ccc3ccccc3c2cc1-c1nnc(-c2ccccc2)o1`, the IC50 was 17.3 µM.
In the case of `COc1ccc2[nH]c(=O)c(-c3nnn(-c4ccc(F)cc4)n3)cc2c1`, the IC50 is reported as > 79 µM (inactive).
`Cc1ccc2c(c1)CCCN2C(=O)CCc1nc2ccccc2c(=O)[nH]1` was tested, and the IC50 was 9.06 µM.
Work on `COc1ccc(-n2c(/C=C/c3ccc(O)cc3)nc3ccccc3c2=O)cc1` yielded an IC50 of 15.8 µM.
In the case of `O=c1[nH]cnc2sc3c(c12)CCC3`, the IC50 is reported as > 79 µM (inactive).
In the case of `O=C(NNC(=O)C(c1ccccc1)c1ccccc1)c1ccccn1`, the IC50 is reported as > 79 µM (inactive).
For `N#Cc1c(-c2cccs2)cc(-c2cccnc2)nc1N`, the IC50 was > 79 µM (inactive).
For `Cn1c(=O)[nH]c(=O)c2c1nc(N(CCO)Cc1ccccc1)n2CCCc1ccccc1`, the IC50 was > 79 µM (inactive).
`CC(C)C(=O)N1CCN(c2ccc(NC(=O)COc3ccccc3[N+](=O)[O-])cc2)CC1` was tested, and the IC50 was > 79 µM (inactive).
`Cc1ccc(C(=O)N/N=C\c2ccc(-c3ccc(Cl)cc3)o2)cn1` gave an IC50 of 9.3 µM.
Compound `O=C(NCC(=O)N(Cc1cccs1)C(C(=O)NC1CCCCC1)c1ccco1)c1ccco1` (stereo unspecified) has an IC50 of 15.5 µM.
Work on `O=C(c1ccco1)N1CCN(C(=O)c2cc(-c3ccncc3)nc3ccc(Br)cc23)CC1` yielded an IC50 of 13.8 µM.
In the case of `COc1ccc(-c2cc(-c3ccc(O)cc3)nc(N)c2C#N)cc1OC`, the IC50 is reported as > 79 µM (inactive).
For `CSc1nc2ccc(S(=O)(=O)Nc3c(C)n(C)n(-c4ccccc4)c3=O)cc2s1`, the IC50 was > 79 µM (inactive).
For `Cc1csc(SCc2nc3sc4c(c3c(=O)[nH]2)CCC4)n1`, the IC50 was > 79 µM (inactive).
In the case of `CC(=O)n1cc(/C=N/NC(=O)c2sc(C)nc2C)c2ccccc21`, the IC50 is reported as > 79 µM (inactive).
With `Oc1ccc(Br)cc1C=Nc1ccc2[nH]ncc2c1` the IC50 was > 79 µM (inactive).
In the case of `CS/C(=N\S(=O)(=O)c1ccccc1)c1ccccc1`, the IC50 is reported as 41.3 µM (inactive).
In the case of `CN(CC(=O)Nc1c(Cl)cccc1Cl)C(=O)Cn1[nH]c(=O)c2ccccc2c1=O`, the IC50 is reported as > 79 µM (inactive).
With `CC(=O)Nc1cc(-c2ccc(C(=O)N3CCOCC3)cc2)cn2c(-c3ccc(C(C)=O)cc3)cnc12` the IC50 was 25.3 µM.
`O=C(Nc1nnc(-c2ccco2)o1)c1ccc2ccccc2c1` was tested, and the IC50 was > 79 µM (inactive).
With `Cc1nc2ccccc2c(=O)[nH]1` the IC50 was > 79 µM (inactive).
Work on `COc1cc(NC(=O)c2c(OC)cccc2OC)ccc1NC(=O)c1cc2ccccc2o1` yielded an IC50 of 12.7 µM.
With `CS(=O)(=O)Nc1ccc(-c2ccc3nccn3c2)cc1` the IC50 was > 79 µM (inactive).
`CC(=O)c1c(C)n(-c2cccc(Cl)c2)c2ccc(O)cc12` was tested, and the IC50 was 16.8 µM.
In the case of `CC(=O)c1cccc(NC(=O)C(C)OC(=O)Cc2n[nH]c(=O)c3ccccc23)c1` (stereo unspecified), the IC50 is reported as > 79 µM (inactive).
With `O=C(CSc1ccc(-c2ccccn2)nn1)N1CCCc2ccccc21` the IC50 was > 79 µM (inactive).
For `Nc1ncc(-c2ccccc2)n1CC1CCCO1` (stereo unspecified), the IC50 was > 79 µM (inactive).
For `CCC(C)Nc1ncnc2c1cnn2Cc1ccc(Cl)cc1` (stereo unspecified), the IC50 was > 79 µM (inactive).
For `N#CC1=C(N)Oc2c(O)cc3ccccc3c2C1c1ccsc1` (stereo unspecified), the IC50 was > 79 µM (inactive).
In the case of `O=C(COC(=O)Cn1[nH]c(=O)c2ccccc2c1=O)NNC(=O)c1ccc(Br)cc1`, the IC50 is reported as > 79 µM (inactive).
`Cc1ccc2nsnc2c1S(=O)(=O)N(Cc1ccco1)Cc1cc2cccc(C)c2[nH]c1=O` gave an IC50 of 25.8 µM.
With `COc1ccc(CN(C)C(=O)C(Cc2ccccc2)NC(=O)c2ccccc2)cc1F` (stereo unspecified) the IC50 was 7.05 µM.
In the case of `COc1ccc(NC(=O)N(C)[C@H]2C[C@H]3c4[nH]c5ccc(-c6ccc7c(c6)OCO7)cc5c4CCN3C[C@H]2[C@H](C)O)cc1`, the IC50 is reported as > 79 µM (inactive).
`Cc1ccc(N2CC(C(=O)NCc3n[nH]c(=O)c4ccccc34)CC2=O)cc1C` (stereo unspecified) was tested, and the IC50 was > 79 µM (inactive).
In the case of `Cc1ccc(-c2n[nH]c(=O)c3ccccc23)cc1N`, the IC50 is reported as 17.5 µM.
`CCN(CC(=O)Nc1c(F)cccc1F)C(=O)CCc1nc2ccccc2c(=O)[nH]1` was tested, and the IC50 was > 79 µM (inactive).
`CCOC(=O)c1c(C)[nH]c(O)c1C=Nc1ccc(Cl)cc1` was tested, and the IC50 was > 79 µM (inactive).
With `O=C(N/N=C\c1ccccn1)c1cccc(C(=O)N/N=C\c2ccccn2)n1` the IC50 was 36 µM (inactive).
For `COC(=O)c1[nH]c2c(c1C)C(=O)CC(c1cc(OC)ccc1OC)C2` (stereo unspecified), the IC50 was > 79 µM (inactive).
For `O=C(CC1CC2CCC1C2)Nc1nc(-c2ccccn2)cs1` (stereo unspecified), the IC50 was > 79 µM (inactive).
In the case of `COc1cc2nc(Nc3ccc(F)cc3)nc(N)c2cc1OC`, the IC50 is reported as 42.9 µM (inactive).
With `COc1cccc(-c2nnc3sc(-c4ccccn4)nn23)c1` the IC50 was > 79 µM (inactive).
In the case of `CCCN1Cc2cccc(C(N)=O)c2C1=O`, the IC50 is reported as > 79 µM (inactive).
In the case of `CCc1nc2ccc(C(=O)Nc3cccc(OCC(=O)N(C)C)c3)cn2c1N(C)Cc1cc2ccccc2s1`, the IC50 is reported as 11.8 µM.
For `CCOC(=O)C1=C(C)Nc2ccccc2N=C1NC(=O)c1oc2ccccc2c1COC`, the IC50 was > 79 µM (inactive).
Compound `COc1cccc(-c2cnc3c(NC=O)cc(-c4cc(C)c(O)c(C)c4)cn23)c1` has an IC50 of 10.2 µM.
In the case of `O=C(Oc1cccc2c(=O)[nH]ccc12)c1ccccc1`, the IC50 is reported as 9.07 µM.
In the case of `O=C1c2ccccc2NC(c2ccc([N+](=O)[O-])cc2)N1O` (stereo unspecified), the IC50 is reported as > 79 µM (inactive).
In the case of `O=C(N/N=C/c1ccccn1)c1[nH]c2ccc([N+](=O)[O-])cc2c1-c1ccccc1`, the IC50 is reported as 13.2 µM.
